Test results reported in patent US7626044B2, “Triptolide derivatives and their uses” (priority 2002, dated 2009).
“And” between values parts separate entries of the source, which are not always exact repeats. Identical values can stand only once.

Key:
[1] = MTT cytotoxic assay; format: cell-based, mouse; details: mouse; restated; read-out: IC50 (lymphocyte cytotoxicity, restated)
Protocol: (§1) Mice were sacrificed by cervical dislocation, and spleens were collected under sterile conditions then teased through a nylon mesh. Erythrocytes were lysed. Cells were washed and resuspended at 5×10^6/ml in RPMI-1640 media supplemented with 10% FBS.
(§2) For one 96 well plate assay, 90 μl of cells, 45 μl of sample and 45 μl of RPMI-1640 media with 10% FBS were added into each well with the final volume 180 μl. The negative control wells (containing 90 μl of RPMI-1640 media with 10% FBS and 90 pt of cells), blank control (180 μl of RPMI-1640 media with 10% FBS) were also performed. Incubate plate for 48 hours at 37° C., 5% CO2 in a humidified incubator. 18 μl of MTT solution (5 mg/ml) was added for 6-7 h.
(§3) 90 μl of MTT lysis solution was added to each well followed by a further incubation at 37° C. for 6-7 h. And the absorbance was measured at 570 nm using a plate reader.

[2] = test system: lymphocyte; assay: MTT cytotoxic assay; format: cell-based, mouse; details: Lymphocyte, read-out: IC50 (concentration required to reduce the viability of cells by 50%); mouse spleen cells, 48 hours, MTT
Protocol: as §1, §2, §3

[3] = test system: T lymphocyte; assay: ConA induced T-lymphocyte proliferation ([3H]thymidine); format: cell-based, mouse; details: 48 h
Protocol: (§4) Mice were sacrificed by cervical dislocation, and spleens were collected under sterile conditions then teased through a nylon mesh. Erythrocytes were lysed. Cells were washed and resuspended at 5×10^6/ml in RPMI-1640 media containing 10% FBS. For one 96 well plate assay, 100 pt of cells, 50 μl of sample and 50 μl of ConA/LPS were added into each well with the final volume 200 μl. The control wells were set up with 50 μl of RPMI-1640 media instead of ConA/LPS.
(§5) Plates were incubated for 48 h (ConA) or 60 h (LPS), respectively, at 37° C., 5% CO2 in a humidified incubator. In the last 8 h of incubation, 25 μl (1.9×10^10 Bq) of [^3H]thymidine was added. After plates were incubated for 48 h, the plates (ConA) were stored at −20° C., then after another 12 h, the plates (LPS) were stored at −20° C.
(§6) At the end of incubation, pulsed cells were harvested on a glass filter using a cell harvester ([…]96®, TOMTEC) and allowed to dry. Incorporation of radioactive thymidine was determined by using liquid Scintillation and Luminescence Counters (MicroBeta Trilux®, PerkinElmer).

[4] = test system: B lymphocyte; assay: LPS induced B-lymphocyte proliferation ([3H]thymidine); format: cell-based, mouse; details: 60 h
Protocol: as §4, §5, §6

[5] = test system: DNFB-induced mouse DTH response; assay: DNFB-induced mouse delayed type hypersensitivity response (DTH); format: in vivo; details: Balb/c mice
Protocol: Female Balb/c mice (age of 6-8 wk) were randomly divided into groups and immunized with 20 μl 0.5% DNFB solution in absolute acetone-olive oil (4:1) on each hind foot on day 0 and 1;
7-9 days after the initial immunization, mice were boosted with 10 μl 0.4% DNFB on both sides of the left ear, whereas the right ear was treated with vehicle alone;
Compounds were administered intraperitoneally (i.p.) or orally (p.o.) to the mice 1 h before DNFB booster immunization and 12 h later.
Ear swelling and other indexes were assessed 24-48 h after booster immunization.
Note: Female ICR mice (age of 6-8 wk) were immunized with 0.7% DNFB solution and boosted with 0.6% DNFB solution.

[6] = Acute toxicity (LD50) test in mice, intraperitoneal injection; format: in vivo, mouse; details: mouse, in vivo, ip; mice, single intraperitoneal injection, 14 days, Bliss' method
Protocol: Mice were single administered with LLDT-8 by intraperitoneal injection, and observed for clinical signs of toxicity immediately and the following 14 days. Necropsy was performed on all animals that died and on all survivors at the end of the 2-week study. Death was seen from the next day after treatment and reached a peak at the 2-4 day. All gross pathological changes should be recorded for each animal. There was no gender difference in survival.
LLDT-8 is much less toxic than its parent compound, […].

In the case of CC(C)[C@]12O[C@H]1[C@@H]1O[C@]13[C@]1(O[C@H]1C[C@H]1C4=C(CC[C@@]13C)C(=O)OC4)[C@@H]2O [LLDT-2, triptolide], the IC50 [1] is reported as 2 nM, the IC50 [2] is reported as 0.00074 µg/mL and 2 nM and the “ED50 for inhibiting T lymphocyte proliferation induced by ConA” value [3] is reported as 2.44 ng/mL. The EC50 ([3]; Mus musculus, T-lymphocyte, read-out: ED50 for inhibiting T lymphocyte proliferation induced by ConA) was 6.8 nM, the “ED50 for inhibiting B lymphocyte proliferation induced by LPS” value [4] was 2.38 ng/mL and the EC50 ([4]; Mus musculus, Lymphocyte, read-out: ED50 for inhibiting B lymphocyte proliferation induced by LPS) was 6.6 nM. The “Body weight after i.p.” value ([5]; Table 8, i.p., dosage 40 (mg/kg), control 21.9) was 21.2 g, the “Body weight before i.p.” value ([5]; Table 8, i.p., dosage 40 (mg/kg), control 22.4) was 21.5 g and the “Ear swelling X ± SD” value ([5]; Table 8, i.p., dosage 40 (mg/kg), control 22.7 ± 2.1) was 17.7 ± 5.7 mg. It also gave a Right ear ([5]; Table 8, i.p., dosage 40 (mg/kg), control 26.4) of 30.2 mg, a Left ear ([5]; Table 8, i.p., dosage 40 (mg/kg), control 49.1) of 47.9 mg and a Spleen ([5]; Table 8, i.p., dosage 40 (mg/kg), control 154.0) of 151.4 mg. The “Body weight after (i.p.)” value ([5]; Table 9, p.o., dosage 0.2 mg/kg, control 19) was 20 g, the “Body weight before (i.p.)” value ([5]; Table 9, p.o., dosage 0.2 mg/kg, control 20) was 21 g and the Ear swelling ([5]; Table 9, p.o., dosage 0.2 mg/kg, control 23.4) was 16.7 mg. It also gave a Right ear ([5]; Table 9, p.o., dosage 0.2 mg/kg, control 25.9) of 24.5 mg, a Left ear ([5]; Table 9, p.o., dosage 0.2 mg/kg, control 49.3) of 41.2 mg and a Spleen ([5]; Table 9, p.o., dosage 0.2 mg/kg, control 125.8) of 127.0 mg. For the same molecule, the LD50 at 14 days [6] was 0.5 mg/kg.
